Paper PMC6359039, “Pharmacokinetics, Tissue Distribution, Plasma Protein Binding Studies of 10-Dehydroxyl-12-Demethoxy-Conophylline, a Novel Anti-Tumor Candidate, in Rats” (Molecules, 2019)
Entries after “also recorded” stand apart in the source; their conditions may differ. Like-named read-outs stand apart in the source and are kept apart here.

How the values were obtained:
A-549 = system: A-549; parameters: method as in PMID 29772302; conditions: cited from earlier work
[1] = Plasma pharmacokinetics in rats after i.v. and i.g. dosing (UPLC-FLR); assay type: in vivo, Sprague Dawley rats; parameters: CL: unit not given here; conditions: rat; for MRT: Sprague-Dawley; for pharmacokinetic model fit: plasma concentration–time data, DAS 2.0
Procedure: Sprague Dawley rats (half male and female) with a body mass 180–220 g were provided by the Laboratory Animal Center of Medical University of Anhui (Hefei, China), Certificate number: SCXK(wan) 2015-002. Animals were housed under controlled conditions (temperature 22 ± 2 °C, humidity 50% ± 5%, 12 h dark/light cycle) with standardized diet and acclimatized for 7 days, prior to the experiments. All protocols and care of the rats were performed in strict compliance with the Guidelines for the Use of Laboratory Animals (National Research Council) and authorized by the Animal Care and Use Committee of Anhui University of Chinese Medicine.
(§1) Chromatographic separation was performed using a UPLC system (Waters ACQUITY-CLASS. US) with an analytical column Kinetex (C18, 1.7 μm, 2.1 mm × 100 mm; Phenomenex; California; CA, USA) at 25 °C. Water and methanol (75:25) were used as the isocratic elution, running at a flow rate of 0.2 mL/min. The detector was used with fluorescence (FLR) detection with a fluorescence excitation wavelength of 330 nm and a fluorescence emission wavelength of 439 nm.
The rat intravenous doses were determined as 4, 8, and 12 mg/kg, and the intragastric administration dose was 20 mg/kg. These were selected to investigate whether the pharmacokinetics of the drug was linear over the range of doses used. In all, 18 (SD) rats (half male and female) were randomly divided into three groups, namely, high-, medium- and low-dose groups. The rats fasted 12 h be before the administration of 10-dehydroxyl-12-demethoxy-conophylline but with free access to water. 10-dehydroxyl-12-demethoxy-conophylline was dissolved in normal saline and added with 5% ethanol. Amounts of 4, 8, and 12 mg/kg (0.5 mL/100 g) were injected into the tail vein of the rat, and 0.3 mL of blood was taken from the eyelid before administration (0 min) and 2, 5, 15, 30, 60, 90, 120, 180, 240, and 300 min after intravenous administration. Another 6 rats (half male and female) were administered an intragastrical (i.g.) dose of 20 mg/kg. Blood samples (0.3 mL) were collected by retro-orbital bleeding into heparinized 1.5mL tubes before administration (0 min) and 15, 30, 60, 90, 120, 240, 480, and 600 min after intragastric administration. Immediately after collection, the blood samples were centrifuged at 3500 rpm for 10 min to obtain plasma, and originating supernatants were also stored at −70 °C until analysis.
Plasma samples (90 μL) were spiked with 10 μL internal standard (100 ng/mL) and extracted with 300 μL of methanol by vortexing for 10 min. The plasma and aqueous phases were separated by centrifugation at 14,000 rpm for 10 min. The supernatants were transferred to another tube and evaporated to dryness at 50 °C. The residue was dissolved in 100 μL methanol and vortexed. A 2 μL aliquot of the solution was injected into the UPLC system for analysis.
The pharmacokinetic parameters were calculated using the pharmacokinetic software DAS 2.0 (Chinese Pharmacological Association, Beijing, China) by non-compartmental and compartmental analysis method. The elimination half-life (t1/2) was determined by linear regression of the terminal portion (last the points) of the plasma concentration–time curve. The area under the plasma concentration–time curve from zero to the last measurable plasma concentration point (AUC0-t) was calculated using the linear trapezoidal method. Extrapolation from time zero to infinity (AUC0-∞) was calculated as follows:AUC0-∞ = AUC0-t + Ct/ke,(2) where Ct is the last measurable plasma concentration and ke is the terminal elimination rate constant. […]

SW480 = system: SW480; parameters: method as in PMID 29772302; conditions: cited from earlier work
[2] = Plasma protein binding by equilibrium dialysis, rat plasma; assay type: in vitro ADME; conditions: Sprague Dawley
Procedure: (§2) Protein binding was determined in vitro by equilibrium dialysis of plasma of rats or human serum albumin. Blank dialysate, internal dialysate, and external dialysate were prepared separately. The internal dialysate was prepared by taking 0.4 mL of blank plasma and adding 100 μL of the 10-dehydroxyl-12-demethoxy-conophylline series standard solution to prepare the equivalent of 10-dehydroxyl-12-demethoxy-conophylline plasma concentrations of 0.078, 0.156, 0.312, 0.625, 1.250, 2.500, 5.000, and 20.000 μg/mL simulating biological samples. The external dialysate was prepared by taking 0.4 mL of blank dialysate and adding 100 μL of the 10-dehydroxyl-12-demethoxy-conophylline series standard solution to prepare the equivalent of 10-dehydroxyl-12-demethoxyconophylline plasma concentrations of […] simulating dialysate samples. The protein binding rate of 10-dehydroxyl-12-demethoxy-conophylline in plasma was measured using the equilibrium dialysis method in this experiment. The concentration of unbound compound (B) and bound compound to protein (A) were calculated as follows:F = (A − B)/A,(1) where F is the bounded fraction, A is the compound concentration in the plasma compartment, and B is the concentration of the compound in the phosphate buffer compartment.

[3] = Plasma protein binding by equilibrium dialysis, human plasma; assay type: in vitro ADME; conditions: read-out: protein binding degree (converted)
Procedure: as §2

HL-60 = system: HL-60; parameters: method as in PMID 29772302; conditions: cited from earlier work
MCF-7 = system: MCF-7; parameters: method as in PMID 29772302; conditions: cited from earlier work
SMMC-7721 = system: SMMC-7721; parameters: method as in PMID 29772302; conditions: cited from earlier work
[4] = Tissue distribution in rats after a single i.v. dose; assay type: in vivo, Sprague Dawley rats; conditions: rat, single i.v. dose 8 mg/kg
Procedure: as §1
For the tissue concentration study of 10-dehydroxyl-12-demethoxy-conophylline, 18 (SD) rats (half male and female) were randomly divided into three groups. The rats were administered intravenously at a dose of 8 mg/kg of 10-dehydroxyl-12-demethoxy-conophylline, and the rats were euthanized at 5, 20, and 45 min after administration. Samples of their tissues and blood were carefully collected and washed with sodium phosphate buffer (pH 7.4) to remove blood. Each tissue (0.2 g) was homogenized in normal saline (1 mL). Subsequently, an amount 120 μL of the homogenate was pipetted into 480 μL of methanol and vortexed for 3 min, and then centrifuged at 14,000 rpm for 10 min. The supernatant was then centrifuged again at 14,000 rpm for 10 min and stored at −70 °C until analysis. The preparation process for analysis was the same as described above for plasma.

[5] = both sexes, Sprague Dawley, plasma, iv, 4 mg/kg i.v., mean ± SD, n = 6
[6] = both sexes, Sprague Dawley, plasma, iv, 8 mg/kg i.v., mean ± SD, n = 6
[7] = both sexes, Sprague Dawley, plasma, iv, 12 mg/kg i.v., mean ± SD, n = 6
[8] = both sexes, Sprague Dawley, plasma, po, 20 mg/kg i.g., mean ± SD, n = 6
[9] = 12 mg/kg i.v., mean ± SD, n = 6
[10] = 20 mg/kg i.g., mean ± SD, n = 6

CC[C@@]12CC(C(=O)OC)=C3Nc4cc5c(cc4[C@@]34CCN(C[C@H]3O[C@H]31)[C@@H]24)[C@@H]1C(O5)[C@@H](O)[C@@]2(CC)CC(C(=O)OC)=C3Nc4cc(OC)ccc4[C@@]34CCN1[C@@H]24 (stereo partly shown) [10-dehydroxyl-12-demethoxy-conophylline, 10-Dehydroxyl-12-demethoxy-conophylline]
inhibitory activity on A-549 tumor cell line (A-549): significant inhibitory activity | AUC(0-inf) ([1]; both sexes, Sprague Dawley, plasma, iv, 4 mg/kg i.v.): 1140 ng·h/mL | AUC(0-t) [1, 5]: 988 ng·h/mL | clearance [1, 5]: 41 ± 70 mL/min/kg | AUC(0-inf) [1, 6]: 2190 ng·h/mL | AUC(0-t) [1, 6]: 2150 ng·h/mL | clearance [1, 6]: 39 ± 120 mL/min/kg | AUC(0-inf) ([1]; both sexes, Sprague Dawley, plasma, iv, 12 mg/kg i.v.): 5090 ng·h/mL | AUC(0-t) [1, 7]: 3910 ng·h/mL | clearance [1, 7]: 41 ± 50 mL/min/kg | bioavailability ([1]; both sexes, Sprague Dawley, plasma, oral, 20 mg/kg i.g. versus i.v., read-out: absolute oral bioavailability): 15.8% | AUC(0-inf) [1, 8]: 1240 ng·h/mL | AUC(0-t) [1, 8]: 867 ng·h/mL | Tmax ([1]; both sexes, Sprague Dawley, plasma, iv, 4 mg/kg, 4 mg/kg i.v., mean ± SD, n = 6): 2 min | half-life ([1]; both sexes, Sprague Dawley, plasma, iv, 4 mg/kg, 4 mg/kg i.v., mean ± SD, n = 6, read-out: t1/2β): 68.5 ± 3.29 min | Tmax ([1]; both sexes, Sprague Dawley, plasma, iv, 8 mg/kg, 8 mg/kg i.v., mean ± SD, n = 6): 2 min | half-life ([1]; both sexes, Sprague Dawley, plasma, iv, 8 mg/kg, 8 mg/kg i.v., mean ± SD, n = 6, read-out: t1/2β): 66.5 ± 4.55 min | Tmax ([1]; both sexes, Sprague Dawley, plasma, iv, 12 mg/kg, 12 mg/kg i.v., mean ± SD, n = 6): 2 min | half-life ([1]; both sexes, Sprague Dawley, plasma, iv, 12 mg/kg, 12 mg/kg i.v., mean ± SD, n = 6, read-out: t1/2β): 69.3 ± 4.32 min | half-life ([1]; both sexes, Sprague Dawley, plasma, iv, 12 mg/kg, i.v. dosing at 4, 8 and 12 mg/kg, read-out: half-life t1/2α of intravenous administration): ~7 min | half-life ([1]; both sexes, Sprague Dawley, plasma, iv, 12 mg/kg, i.v. dosing at 4, 8 and 12 mg/kg, read-out: t1/2β of intravenous administration): ~69 min | Tmax ([1]; both sexes, Sprague Dawley, plasma, po, 20 mg/kg, 20 mg/kg i.g., mean ± SD, n = 6): ~90 min | half-life ([1]; both sexes, Sprague Dawley, plasma, po, 20 mg/kg, 20 mg/kg i.g., mean ± SD, n = 6, read-out: t1/2β): 69.9 ± 2.68 min | MRT ([1]; both sexes, plasma, iv, 4 mg/kg i.v., mean ± SD, n = 6): 1.52 h | MRT ([1]; both sexes, plasma, iv, 8 mg/kg i.v., mean ± SD, n = 6): 1.42 h | MRT ([1]; both sexes, plasma, iv, 12 mg/kg i.v., mean ± SD, n = 6): 1.36 h | MRT ([1]; both sexes, plasma, po, 20 mg/kg i.g., mean ± SD, n = 6): 4.28 h | AUC0–∞ ([1]; 4 mg/kg i.v., mean ± SD, n = 6): 68.478 ± 8.167 µg·min/mL | V ([1]; 4 mg/kg i.v., mean ± SD, n = 6): 2.096 ± 0.0465 L/kg | t1/2α ([1]; 4 mg/kg i.v., mean ± SD, n = 6): 6.983 ± 2.299 min | V ([1]; 8 mg/kg i.v., mean ± SD, n = 6): 1.906 ± 0.012 L/kg | t1/2α ([1]; 8 mg/kg i.v., mean ± SD, n = 6): 7.108 ± 1.908 min | AUC0–∞ [1, 9]: 305.616 ± 17.432 µg·min/mL | V [1, 9]: 2.014 ± 0.019 L/kg | t1/2α [1, 9]: 7.046 ± 2.050 min | CL [1, 10]: 0.046 ± 0.013 | V [1, 10]: 4.881 ± 2.390 L/kg | t1/2α [1, 10]: 52.415 ± 1.920 min | t1/2β of intravenous administration ([1]; i.v. dosing at 4, 8 and 12 mg/kg): about 68 min | pharmacokinetic model fit [1]: fit to a two-room model | pharmacokinetic model fit ([1]; listed as 10-dehydroxyl-12-demethoxyconophylline): consistent with a two-compartment pharmacokinetic model | linear correlation between AUC0→t and dose (r) ([1]; single i.v. dose 4, 8 and 12 mg/kg): 0.9821 | inhibitory activity on SW480 tumor cell line (SW480): significant inhibitory activity | fraction unbound at 1 µg/mL ([2]; 1.00 µg/mL, equilibrium dialysis, read-out: protein binding degree (converted)): 0.181 | fraction unbound at 2.5 µg/mL ([2]; 2.50 µg/mL, equilibrium dialysis, read-out: protein binding degree (converted)): 0.174 | fraction unbound at 5 µg/mL ([2]; 5.00 µg/mL, equilibrium dialysis, read-out: protein binding degree (converted)): 0.188 | fraction unbound ([2]; rat, three concentrations (1.00, 2.50 and 5.00 µg/mL), summary in abstract, read-out: protein binding degree): < 0.2 | fraction unbound at 1 µg/mL ([3]; 1.00 µg/mL): 0.131 | fraction unbound at 2.5 µg/mL ([3]; 2.50 µg/mL): 0.159 | fraction unbound at 5 µg/mL ([3]; 5.00 µg/mL): 0.153 | inhibitory activity on HL-60 tumor cell line (HL-60): significant inhibitory activity | inhibitory activity on MCF-7 tumor cell line (MCF-7): significant inhibitory activity | inhibitory activity on SMMC-7721 tumor cell line (SMMC-7721): significant inhibitory activity | concentration in the brain [4]: kept to a small amount | tissue distribution at 5 min ([4]; 5 min): in the heart and kidney were markedly higher than in other tissues | tissue distribution at 20 min ([4]; 20 min (equilibrium time)): the drug concentration in the lung reached the highest at this time | tissue distribution at 45 min ([4]; 45 min (elimination period)): mainly distributed in the liver and kidney tissues | tissue distribution, tissues with highest levels ([4]; overall, 8 mg/kg): detected in all examined tissues with the highest in kidney, liver, and lung; also recorded: the distribution in the kidney and lung is the highest
